Results published in US20130072543A1, “Compounds and Compositions for Nucleic Acid Formulation and Delivery” (ARROWHEAD RESEARCH CORPORATION, priority 2011, published 2013).
Strand notation (5' to 3'): a small letter for the sugar, then the base; units joined by * are phosphorothioate-linked, units joined directly phosphodiester-linked; [ ] holds rarer units or linkages, { } end groups; capitals alone tell only the bases. d = 2'-deoxy (DNA); m = 2'-O-methyl; r = 2'-OH (RNA)

System: Kif11 mRNA
Experiment: In vivo administration of LNPs to mice, H&E histopathology of aberrant mitotic figures
Conditions: mouse bone marrow, 5 consecutive high power (400×) microscopic fields per sample
Description: In Vivo Administration. Selected LNPs were dosed IV via tail vein injection on three successive days and the indicated tissues (see FIG. 11-13) were harvested and fixed in 10% zinc-formalin overnight, processed, paraffin embedded, sectioned at 5 μm, and stained with hematoxylin and eosin for histopathology assessment. In vivo delivery and Kif11 knockdown was shown with an increase in aberrant mitotic figures as a surrogate for Kif11 mRNA loss in murine liver, spleen and bone marrow tissue. Mitotic figures refer to chromosome aggregation during mitosis.

LUC: control siRNA targeting Firefly Luciferase mRNA, 21 nucleotides, SEQ ID 3 and 4 (chain 1 mCmUmUrAmCrGmCmUrGrArGmUrAmCmUmUmCrGrAdT*dT; chain 2 rUrCrGrArArGmUrArCrUmCrArGrCrGmUrArArGdT*dT; listed as Photinus pyralis)
Average no. of aberrant mitotic figures: 0
